In US20240277745A1, “PEMAFIBRATE AND/OR TOFOGLIFLOZIN FOR USE IN TREATING LIVER DISEASE” (KOWA COMPANY, LTD, priority 2021, published 2024):

Key:
[1] = system: patients with biopsy-confirmed NAFLD and type 2 diabetes; assay: Example 3 clinical trial: serum enzyme levels and liver test; format: in vivo, human
From the text: (§1) 1. The biopsy consistent with the diagnosis of NAFLD 2. Type 2 diabetes, HbA1c>=7.0% • Hepatic virus infections, autoimmune hepatitis, primary biliary cirrhosis, sclerosing cholangitis, haemochromatosis, antitrypsin deficiency, Wilsons disease, history of parenteral nutrition and use of drugs known to induce steatosis or hepatic injury caused by substance abuse and or the current or past consumption of more than 20 g of alcohol daily • Hypersensitivity to or contraindication of glimepiride and tofogliflozin • None type 2 diabetes • Poorly controlled diabetes • Repeated episodes of unexplained hypoglycemia • Concomitant infection or planned surgery • Poorly controlled hypertension • Severe retinopathy • Malignancy on an active therapeutic regimen or malignancy without complete remission or cure • Severe health problems not suitable for the study • Pregnant or lactating women • Inability to participate in the study as assessed by the investigators. A total of 40 patients were randomly assigned to receive once-daily tofogliflozin at a dose of 20 mg (20 patients) or to receive once-daily glimepiride (20 patients). All 40 patients (100%) completed the trial. Demographic and baseline clinical characteristics except for gender were similar in both groups. The patients were all Japanese and type 2 diabetes. The mean age was 53.9 years, the mean body weight 82.0 kg, the mean Hemoglobin A1c 8.2%, and the mean NAS 4.45. A total of 18 patients (45%) had stage F1 fibrosis, 11 (27.5%) had stage F2, and 5 (12.5%) had stage F3. A total of 40 patients were randomly assigned to receive once-daily tofogliflozin at a dose of 20 mg (20 patients) or to receive once-daily glimepiride (20 patients). All 40 patients (100%) completed the trial. Information for the primary and confirmatory secondary outcomes related to a biopsy at week 48 was available for 39 patients (97.5%). For only one patient with a serious adverse event (2.5%).

[2] = system: patients with biopsy-confirmed NAFLD and type 2 diabetes; assay: Example 3 clinical trial: metabolic parameters; format: in vivo, human
From the text: as §1

[3] = system: patients with biopsy-confirmed NAFLD and type 2 diabetes; assay: Example 3 clinical trial: liver histology (biopsy) at 48 weeks; format: in vivo, human; conditions: for histologic improvement from baseline to 48 weeks (in words): once-daily treatment
From the text: as §1

adults with NAFLD [4] = assay: Example 1 clinical study: liver function (ALT, AST); format: in vivo, human; conditions: for ALT, percent change from baseline / AST, percent change from baseline: pemafibrate 0.4 mg/day BID; for ALT, mean difference / AST, mean difference: pemafibrate vs placebo
Description: (§2) This was a placebo-controlled, randomized, double-blind, parallel-group, study in adults with NAFLD. Subjects were administered pemafibrate tablets (0.4 mg/day, BID) or placebo tablets for 72 weeks following a screening period of from 2 to 8 weeks. The primary endpoint was percent change from baseline in liver fat content, measured by MRI-PDFF at week 24. The key secondary endpoints were percent changes in liver stiffness and ALT levels from baseline to week 72 and 24, respectively. The study was conducted in compliance with relevant guidelines, GCP guidance, and the Declaration of Helsinki.
(§3) Patients with a hepatic fat fraction ≥10% on MRI-PDFF, liver stiffness (measured using magnetic resonance elastography, MRE)≥2.5 kPa and elevated ALT (>40 U/L for men, >30 U/L for women) were enrolled. Patients were excluded in case of body mass index (BMI)<22 kg/m^2, uncontrolled diabetes (HbA1c≥8%), impaired renal function (estimated glomerular filtration rate, eGFR, <30 mL·min^−1·1.73^−1·m^−2 or on dialysis), cirrhosis, biliary obstruction, or chronic liver diseases other than NAFLD.
(§4) Subjects took their assigned medication (pemafibrate 0.2 mg tablet or placebo) orally, one tablet, twice daily, for 72 weeks. Study visits were set every 4 weeks from the start of treatment to week 24 and every 8 weeks from week 24 onwards. Liver fat content and liver stiffness were measured at screening examinations that took place pre-randomization and subsequently at weeks 0, 24, 48, and 72.
(§5) The primary efficacy endpoint was percent change in hepatic fat content, as measured using MRI-PDFF. Liver stiffness measured using MRE was a secondary endpoint and similarly assessed percent change from baseline values. Other efficacy endpoints included liver function, fibrosis and inflammatory markers, and lipid markers.

[5] = system: LDL receptor knockout mice and KK-A mice fed with an MCD (methionine-choline-deficient) diet; conditions: cited from earlier work
adults with NAFLD [6] = assay: Example 1 clinical study: liver fat content by MRI-PDFF; format: in vivo, human; conditions: for Liver fat content by MRI-PDFF, Responder / Liver fat content by MRI-PDFF, percent change from baseline: pemafibrate 0.4 mg/day BID; for Liver fat content by MRI-PDFF, mean difference: pemafibrate vs placebo
Description: as §2, §3, §4
(§6) All imaging assessment procedures were performed blinded. The equipment used in all facilities was standardized to a 3.0 T MR Imaging System (GE Healthcare, Little Chalfont, UK). As an application, IDEAL-IQ for MRI-PDFF and MR-touch for MRE were used. Detailed imaging conditions are described in the “Imaging Procedure Manual” and imaging procedures were standardized throughout all tests. Imaging was performed during fasting (≥4 h postprandial) and the timing of testing (pre-breakfast/post-breakfast to pre-lunch/post-lunch) was unified for each patient throughout the study.
as §5

adults with NAFLD [7] = assay: Example 1 clinical study: liver stiffness by MRE; format: in vivo, human; conditions: for Liver stiffness by MRE, Responder / Liver stiffness by MRE, percent change from baseline: pemafibrate 0.4 mg/day BID; for Liver stiffness by MRE, mean difference: pemafibrate vs placebo
Description: as §2, §3, §4, §6, §5

adults with NAFLD [8] = assay: Example 1 clinical study: lipids; format: in vivo, human; conditions: for HDL cholesterol, percent change from baseline / LDL cholesterol, percent change from baseline / Non-HDL cholesterol, percent change from baseline / Total cholesterol, percent change from baseline / Triglycerides, percent change from baseline: pemafibrate 0.4 mg/day BID; for HDL cholesterol, mean difference / LDL cholesterol, mean difference / Non-HDL cholesterol, mean difference / Total cholesterol, mean difference / Triglycerides, mean difference: pemafibrate vs placebo
Description: as §2, §3, §4, §5

[9] = reported by Ishibashi 2016; cited from earlier work
[10] = week 48, P<0.001 for the comparison with glimepiride
[11] = baseline to 48 weeks, tofogliflozin 20 mg once daily

## CCc1ccc(Cc2ccc3c(c2)[C@]2(OC3)OC(CO)[C@@H](O)C(O)C2O)cc1 (stereo in doubt) [tofogliflozin, 6-((4-ethylphenyl)methyl)-3′,4′,5′,6′-tetrahydro-6′-(hydroxymethyl)spiro(isobenzofuran-1(3H),2′-(2H)pyran)-3′,4′,5′-triol]
[1]; tofogliflozin 20 mg once daily
  FIB-4 index (in words): significantly reduced
  alanine aminotransferase levels (in words): early and highly significant decrease
  aspartate aminotransferase levels (in words): early and highly significant decrease
[1]; [10]
  gamma-glutamyl transferase, mean decrease: 23.8 IU/L
[2]; tofogliflozin 20 mg once daily
  BMI (in words): significant reduction
  percentage of body fat (in words): significant reduction
[2]; [10]
  mean body weight decrease: 4.8 kg
[3]; 48 weeks
  NAS compared with baseline values (in words): improved significantly
  fibrosis score (in words): significantly reduced
  lobular inflammation score (in words): significantly reduced
  mean ballooning scores (in words): significantly reduced
  mean steatosis scores (in words): significantly reduced
  percentage of steatosis (in words): significantly reduced
  histologic improvement from baseline to 48 weeks (in words): significant histologic improvements from baseline to 48 weeks in all variables
[3]; [11]
  ratio of the patients with improvement in ballooning necrosis: 55%
  ratio of the patients with improvement in lobular inflammation: 50%
  ratio of the patients with improvement in steatosis: 65%
[3]; before and after treatment, 48 weeks, P=0.001
  fibrosis scores improved: 60%

## CCC1=C(C)CN(C(=O)NCCc2ccc(S(=O)(=O)NC(=O)N[C@H]3CC[C@H](C)CC3)cc2)C1=O [glimepiride]
[3]; 48 weeks
  NAS compared with baseline values (in words): improved significantly
  mean ballooning scores (in words): significantly reduced
  histologic improvement from baseline to 48 weeks (in words): the only histologic improvement from baseline to 48 weeks was a reduction in ballooning necrosis

## (R)-2-[3-[[N-(benzoxazol-2-yl)-N-3-(4-methoxyphenoxy)propyl]aminomethyl]phenoxy]butyric acid [Pemafibrate]
Adults with NAFLD [4]; Example 1 study, summary
  liver function as measured by ALT (in words): significant improvements
Adults with NAFLD [4]; Week 24
  ALT, percent change from baseline: −39.53%
  AST, percent change from baseline: −9.21%
  ALT, mean difference: −27.08%
  AST, mean difference: −2.69%
Adults with NAFLD [4]; Week 48
  ALT, percent change from baseline: −42.53%
  AST, percent change from baseline: −9.75%
  ALT, mean difference: −26.75%
  AST, mean difference: −0.18%
Adults with NAFLD [4]; Week 72
  ALT, percent change from baseline: −43.84%
  AST, percent change from baseline: −9.61%
  ALT, mean difference: −33.60%
  AST, mean difference: −4.48%
[5]
  ballooning of hepatocytes, fat deposition, number of Kupffer cells (in words): suppresses ballooning of hepatocytes and fat deposition and reduces the number of Kupffer cells
Adults with NAFLD [6]; Week 24
  Liver fat content by MRI-PDFF, Responder: 20.7 (12) %
  Liver fat content by MRI-PDFF, percent change from baseline: −5.28%
  Liver fat content by MRI-PDFF, mean difference: −1.04%
Adults with NAFLD [6]; Week 48
  Liver fat content by MRI-PDFF, Responder: 10.3 (6) %
  Liver fat content by MRI-PDFF, percent change from baseline: 0.50%
  Liver fat content by MRI-PDFF, mean difference: 1.03%
Adults with NAFLD [6]; Week 72
  Liver fat content by MRI-PDFF, Responder: 22.4 (13) %
  Liver fat content by MRI-PDFF, percent change from baseline: −4.88%
  Liver fat content by MRI-PDFF, mean difference: −5.10%
Adults with NAFLD [7]; Example 1 study, summary
  liver stiffness when measured by MRE (in words): significant improvements
Adults with NAFLD [7]; Week 24
  Liver stiffness by MRE, Responder: 19.0 (11) %
  Liver stiffness by MRE, percent change from baseline: −5.03%
  Liver stiffness by MRE, mean difference: −4.38%
Adults with NAFLD [7]; Week 48
  Liver stiffness by MRE, Responder: 37.9 (22) %
  Liver stiffness by MRE, percent change from baseline: −9.01%
  Liver stiffness by MRE, mean difference: −5.68%
Adults with NAFLD [7]; Week 72
  Liver stiffness by MRE, Responder: 25.9 (15) %
  Liver stiffness by MRE, percent change from baseline: −7.27%
  Liver stiffness by MRE, mean difference: −6.15%
Adults with NAFLD [8]; Example 1 study, summary
  HDL cholesterol (in words): significant reductions
  LDL cholesterol (in words): significant reductions
  total cholesterol (in words): significant reductions
Adults with NAFLD [8]; Week 24
  HDL cholesterol, percent change from baseline: −1.68%
  LDL cholesterol, percent change from baseline: −14.72%
  Non-HDL cholesterol, percent change from baseline: −13.82%
  Total cholesterol, percent change from baseline: −11.19%
  Triglycerides, percent change from baseline: −34.60%
  HDL cholesterol, mean difference: −7.57%
  LDL cholesterol, mean difference: −13.66%
  Non-HDL cholesterol, mean difference: −12.82%
  Total cholesterol, mean difference: −11.55%
  Triglycerides, mean difference: −31.11%
Adults with NAFLD [8]; Week 48
  HDL cholesterol, percent change from baseline: −6.40%
  LDL cholesterol, percent change from baseline: −14.22%
  Non-HDL cholesterol, percent change from baseline: −12.95%
  Total cholesterol, percent change from baseline: −11.55%
  Triglycerides, percent change from baseline: −27.11%
  HDL cholesterol, mean difference: −10.24%
  LDL cholesterol, mean difference: −16.37%
  Non-HDL cholesterol, mean difference: −14.24%
  Total cholesterol, mean difference: −13.19%
  Triglycerides, mean difference: −25.77%
Adults with NAFLD [8]; Week 72
  HDL cholesterol, percent change from baseline: −7.38%
  LDL cholesterol, percent change from baseline: −12.48%
  Non-HDL cholesterol, percent change from baseline: −11.92%
  Total cholesterol, percent change from baseline: −11.12%
  Triglycerides, percent change from baseline: −31.55%
  HDL cholesterol, mean difference: −11.86%
  LDL cholesterol, mean difference: −15.14%
  Non-HDL cholesterol, mean difference: −15.77%
  Total cholesterol, mean difference: −14.86%
  Triglycerides, mean difference: −32.67%
[9]
  ALT concentrations (in words): much more modest decrease
  LDL cholesterol (in words): increase
  total cholesterol (in words): modest decrease
